The record followed here is ChEMBL document CHEMBL5291721, “A preclinical secondary pharmacology resource illuminates target-adverse drug reaction associations of marketed drugs” (Nat Commun, 2023).

The structures appear in SMILES notation. Bounds are passed on as bounds.

In test [1] the target is T1, Adenosine receptor A3 (Homo sapiens, UniProt P0DMS8).
T1 sequence (P0DMS8 whole entry): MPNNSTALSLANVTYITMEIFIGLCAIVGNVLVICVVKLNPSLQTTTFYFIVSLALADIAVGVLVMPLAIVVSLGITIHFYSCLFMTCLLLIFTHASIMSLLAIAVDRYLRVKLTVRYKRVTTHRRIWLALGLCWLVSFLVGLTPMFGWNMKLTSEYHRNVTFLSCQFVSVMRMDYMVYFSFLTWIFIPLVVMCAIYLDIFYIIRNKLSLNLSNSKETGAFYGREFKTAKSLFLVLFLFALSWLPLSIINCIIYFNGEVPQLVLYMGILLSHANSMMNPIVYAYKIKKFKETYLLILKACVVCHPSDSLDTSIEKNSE

Test [2] concerns the target T2, Alpha-2B adrenergic receptor (Homo sapiens, UniProt P18089).
T2 sequence (P18089 whole entry): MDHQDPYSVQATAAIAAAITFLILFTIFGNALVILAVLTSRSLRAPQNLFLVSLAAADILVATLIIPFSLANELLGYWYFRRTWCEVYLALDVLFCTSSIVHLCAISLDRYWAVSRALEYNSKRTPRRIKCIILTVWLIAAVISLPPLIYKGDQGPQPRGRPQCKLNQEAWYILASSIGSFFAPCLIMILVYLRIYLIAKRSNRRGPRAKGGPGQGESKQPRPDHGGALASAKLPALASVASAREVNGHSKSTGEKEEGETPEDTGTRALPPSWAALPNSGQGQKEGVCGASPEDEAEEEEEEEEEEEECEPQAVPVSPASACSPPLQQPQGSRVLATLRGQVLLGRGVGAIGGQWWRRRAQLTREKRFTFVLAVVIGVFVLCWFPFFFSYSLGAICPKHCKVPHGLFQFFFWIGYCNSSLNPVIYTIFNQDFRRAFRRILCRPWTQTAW

For test [3], the target named is Beta-1 adrenergic receptor (Homo sapiens, UniProt P08588). The test is classed as functional.
Sequence of Beta-1 adrenergic receptor (P08588 whole entry): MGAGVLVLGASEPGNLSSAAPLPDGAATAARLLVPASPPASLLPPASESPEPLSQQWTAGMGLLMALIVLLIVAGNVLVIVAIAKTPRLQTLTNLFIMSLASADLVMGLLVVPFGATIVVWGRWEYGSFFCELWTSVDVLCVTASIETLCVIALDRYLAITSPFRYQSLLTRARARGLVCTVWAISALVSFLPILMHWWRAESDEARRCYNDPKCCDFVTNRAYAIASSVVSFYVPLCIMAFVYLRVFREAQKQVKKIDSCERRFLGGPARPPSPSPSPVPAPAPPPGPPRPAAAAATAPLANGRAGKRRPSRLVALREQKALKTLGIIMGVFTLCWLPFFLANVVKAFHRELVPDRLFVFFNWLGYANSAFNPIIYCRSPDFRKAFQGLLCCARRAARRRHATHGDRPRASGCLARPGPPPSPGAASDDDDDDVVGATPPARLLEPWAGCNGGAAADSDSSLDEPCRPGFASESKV
Test [4] has as its target D(1A) dopamine receptor (Homo sapiens, UniProt P21728).
Test [5] addresses D(3) dopamine receptor (Homo sapiens, UniProt P35462).
For test [6], the target named is Gamma-aminobutyric acid receptor subunit alpha-1 (Rattus norvegicus, UniProt P62813). The format is functional.
Sequence of Gamma-aminobutyric acid receptor subunit alpha-1 (P62813 whole entry): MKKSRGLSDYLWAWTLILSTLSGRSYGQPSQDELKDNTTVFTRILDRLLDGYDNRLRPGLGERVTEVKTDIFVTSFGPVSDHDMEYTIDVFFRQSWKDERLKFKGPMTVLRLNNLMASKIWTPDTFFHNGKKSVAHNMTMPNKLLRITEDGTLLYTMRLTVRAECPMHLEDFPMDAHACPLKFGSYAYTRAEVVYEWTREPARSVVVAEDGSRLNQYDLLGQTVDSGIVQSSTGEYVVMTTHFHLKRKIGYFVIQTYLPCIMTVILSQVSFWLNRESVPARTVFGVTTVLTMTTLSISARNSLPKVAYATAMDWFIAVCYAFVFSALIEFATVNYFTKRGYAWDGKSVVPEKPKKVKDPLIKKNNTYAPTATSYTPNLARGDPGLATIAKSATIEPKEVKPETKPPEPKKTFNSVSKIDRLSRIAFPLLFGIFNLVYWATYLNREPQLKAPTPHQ
The target of test [7] is T3, 5-hydroxytryptamine receptor 2C (Homo sapiens, UniProt P28335).
T3 sequence (P28335 whole entry): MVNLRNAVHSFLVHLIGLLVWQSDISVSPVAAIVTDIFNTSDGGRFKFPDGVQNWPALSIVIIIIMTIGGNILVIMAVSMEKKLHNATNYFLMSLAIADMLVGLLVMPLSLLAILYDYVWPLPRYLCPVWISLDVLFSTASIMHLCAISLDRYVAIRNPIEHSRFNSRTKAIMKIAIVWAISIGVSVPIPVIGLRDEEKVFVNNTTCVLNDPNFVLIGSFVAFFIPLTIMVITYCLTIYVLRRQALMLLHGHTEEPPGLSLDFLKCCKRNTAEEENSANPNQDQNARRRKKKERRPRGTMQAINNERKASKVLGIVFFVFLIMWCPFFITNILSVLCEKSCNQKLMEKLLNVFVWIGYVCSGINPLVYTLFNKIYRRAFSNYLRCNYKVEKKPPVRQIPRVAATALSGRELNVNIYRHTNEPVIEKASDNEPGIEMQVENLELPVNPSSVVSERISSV

Test [8] concerns the target T4, Equilibrative nucleoside transporter 1 (Homo sapiens, UniProt Q99808).
T4 sequence (Q99808 whole entry): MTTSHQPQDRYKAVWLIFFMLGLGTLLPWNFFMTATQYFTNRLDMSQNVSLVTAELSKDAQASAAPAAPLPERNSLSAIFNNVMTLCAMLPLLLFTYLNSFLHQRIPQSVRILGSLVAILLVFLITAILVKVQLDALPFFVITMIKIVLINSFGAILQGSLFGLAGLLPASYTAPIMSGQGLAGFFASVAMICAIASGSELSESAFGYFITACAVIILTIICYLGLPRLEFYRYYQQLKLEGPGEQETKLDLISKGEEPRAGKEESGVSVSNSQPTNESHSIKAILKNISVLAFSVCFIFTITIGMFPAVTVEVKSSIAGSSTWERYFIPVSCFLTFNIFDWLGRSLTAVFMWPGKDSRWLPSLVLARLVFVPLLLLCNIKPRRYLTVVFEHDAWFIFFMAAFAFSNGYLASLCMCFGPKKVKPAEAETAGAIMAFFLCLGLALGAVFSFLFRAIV

Test [9] deals with T5, Alpha-2A adrenergic receptor (Homo sapiens, UniProt P08913).
T5 sequence (P08913 whole entry): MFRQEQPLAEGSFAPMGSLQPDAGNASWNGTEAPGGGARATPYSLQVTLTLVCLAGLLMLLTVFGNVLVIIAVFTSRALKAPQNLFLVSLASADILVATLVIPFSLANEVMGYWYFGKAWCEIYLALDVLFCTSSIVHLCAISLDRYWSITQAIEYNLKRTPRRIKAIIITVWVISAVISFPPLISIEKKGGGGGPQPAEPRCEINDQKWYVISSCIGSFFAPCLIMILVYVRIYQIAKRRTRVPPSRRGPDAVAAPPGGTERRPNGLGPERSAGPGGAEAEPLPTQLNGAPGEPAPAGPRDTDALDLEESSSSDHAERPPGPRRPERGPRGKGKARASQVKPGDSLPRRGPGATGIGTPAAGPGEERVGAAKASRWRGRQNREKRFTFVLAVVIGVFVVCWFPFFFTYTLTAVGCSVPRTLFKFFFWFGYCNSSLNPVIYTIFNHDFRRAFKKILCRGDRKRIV
The format is functional, cell-based.

In test [10] the target is T6, 5-hydroxytryptamine receptor 1A (Homo sapiens, UniProt P08908).
T6 sequence (P08908 whole entry): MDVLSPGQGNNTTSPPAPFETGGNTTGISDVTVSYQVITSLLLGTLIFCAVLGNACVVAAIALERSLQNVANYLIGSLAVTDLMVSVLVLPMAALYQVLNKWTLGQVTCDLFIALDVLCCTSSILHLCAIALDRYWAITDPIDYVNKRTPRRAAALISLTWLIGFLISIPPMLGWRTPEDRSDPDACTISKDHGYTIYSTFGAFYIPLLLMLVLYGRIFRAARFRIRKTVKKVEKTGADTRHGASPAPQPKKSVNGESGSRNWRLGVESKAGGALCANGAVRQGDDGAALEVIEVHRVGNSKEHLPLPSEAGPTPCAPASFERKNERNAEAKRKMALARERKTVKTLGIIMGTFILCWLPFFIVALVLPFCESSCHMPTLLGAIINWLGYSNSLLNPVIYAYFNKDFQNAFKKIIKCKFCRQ
The test is classed as functional, cell-based.
Also: assay procedure not described here.

Sequence of D(1A) dopamine receptor (P21728 whole entry): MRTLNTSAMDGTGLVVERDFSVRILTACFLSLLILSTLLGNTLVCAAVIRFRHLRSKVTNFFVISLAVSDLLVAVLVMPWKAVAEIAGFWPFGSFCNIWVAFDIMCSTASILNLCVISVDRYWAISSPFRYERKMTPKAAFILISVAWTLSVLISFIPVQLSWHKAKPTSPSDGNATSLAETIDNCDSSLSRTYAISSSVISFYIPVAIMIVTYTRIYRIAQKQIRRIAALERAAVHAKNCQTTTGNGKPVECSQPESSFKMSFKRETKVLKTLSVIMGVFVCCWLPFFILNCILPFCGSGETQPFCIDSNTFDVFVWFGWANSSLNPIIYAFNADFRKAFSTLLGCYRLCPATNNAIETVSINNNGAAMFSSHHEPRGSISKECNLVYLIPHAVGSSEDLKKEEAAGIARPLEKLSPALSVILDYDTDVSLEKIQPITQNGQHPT
Sequence of D(3) dopamine receptor (P35462 whole entry): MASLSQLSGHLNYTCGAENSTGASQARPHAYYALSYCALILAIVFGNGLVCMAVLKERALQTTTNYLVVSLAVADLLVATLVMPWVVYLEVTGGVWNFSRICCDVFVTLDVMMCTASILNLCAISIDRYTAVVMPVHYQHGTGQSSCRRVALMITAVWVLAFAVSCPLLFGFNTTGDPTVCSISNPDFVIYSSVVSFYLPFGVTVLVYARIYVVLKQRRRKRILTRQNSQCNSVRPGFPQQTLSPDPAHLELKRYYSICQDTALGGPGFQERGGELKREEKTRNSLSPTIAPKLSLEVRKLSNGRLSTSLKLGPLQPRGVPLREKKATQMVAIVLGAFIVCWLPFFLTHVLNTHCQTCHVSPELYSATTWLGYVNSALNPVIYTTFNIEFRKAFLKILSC

Regarding `O=C(/C=C/c1cccc(S(=O)(=O)Nc2ccccc2)c1)NO` [BELINOSTAT], the AC50 – broadly, the concentration at which the activity in the assay is half-maximal – in test [1] is greater than 30 µM; in [2], greater than 10 µM; in test [3], greater than 10 µM; in [4], greater than 30 µM; in test [5], greater than 30 µM; in test [6] it was greater than 10 µM. Also, the AC50 in [7] and in test [8] was greater than 30 µM each time.
Consider `OC[C@H]1O[C@@H](n2cnc3c2NC=NC[C@H]3O)C[C@@H]1O` [PENTOSTATIN], for which the AC50 was 3.6 µM in test [1]; greater than 30 µM in test [9]; greater than 30 µM in test [2]; greater than 30 µM in test [3]; greater than 30 µM in [6]; greater than 30 µM in [10]. Also, the AC50 in test [7] was greater than 10 µM; in test [8], greater than 30 µM.
As to `O=S1(=O)CCN(CN2CCS(=O)(=O)NC2)CN1` [TAUROLIDINE], the AC50 was greater than 30 µM in test [1]; greater than 30 µM in test [9]; 20 µM in test [2]; greater than 30 µM in test [3]; greater than 30 µM in [4]; greater than 30 µM in test [5]. The AC50 in test [6] was greater than 10 µM; in test [10], greater than 30 µM; in test [7], greater than 30 µM; in [8], greater than 30 µM.
On to `C[C@@H]1C[C@H]2[C@@H]3C[C@H](F)C4=CC(=O)C=C[C@]4(C)[C@@]3(F)[C@@H](O)C[C@]2(C)[C@@]1(OC(=O)c1ccco1)C(=O)SCF` [FLUTICASONE FUROATE], for which the half-maximal activity concentration (AC50) in test [1] was greater than 10 µM; in [9] it was greater than 10 µM; in [2], greater than 10 µM; in test [3] it was greater than 10 µM; in test [4], greater than 30 µM; in test [5], greater than 30 µM. The AC50 in test [6] is greater than 10 µM; in [10], greater than 10 µM; in [7] it was greater than 30 µM; in test [8], greater than 10 µM.
Regarding `CC1=C(C(=O)OC(C)C)C(c2cccc([N+](=O)[O-])c2)C(C(=O)OC2CN(C(c3ccccc3)c3ccccc3)C2)=C(N)N1` (centres undefined) [AZELNIDIPINE], the AC50 was 2.2 µM in test [1]; greater than 30 µM in [9]; greater than 30 µM in [2]; 27 µM in test [3]; greater than 30 µM in test [6]; greater than 30 µM in test [10]. The AC50 in [7] and in test [8] was greater than 30 µM throughout.
For the molecule `CN(C)CCCN1c2ccccc2CCc2ccccc21` [IMIPRAMINE], the AC50 in test [1] is 30.8 µM; in test [9] it was greater than 10 µM; in test [2], 0.32 µM; in test [3], greater than 10 µM; in test [6], greater than 10 µM; in [10], greater than 10 µM. In addition, the AC50 in test [7] was 0.13 µM; in test [8], greater than 30 µM.
On to `CN[C@@H](C)[C@@H](O)c1ccccc1` [PSEUDOEPHEDRINE], for which the AC50 in test [1] is greater than 30 µM; in test [9], greater than 10 µM; in test [2], greater than 10 µM; in test [3], greater than 10 µM; in test [6], greater than 10 µM; in [10], greater than 10 µM. Also, the AC50 in test [7] and in test [8] was greater than 30 µM throughout.
In the case of `C/C=C(/C(=C/C)c1ccc(O)cc1)c1ccc(O)cc1` [DIENESTROL], the concentration at half-maximal activity (AC50) in [1] was 7.3 µM; in [9], greater than 10 µM; in test [2], greater than 10 µM; in test [3], greater than 10 µM; in test [6], greater than 10 µM; in test [10], greater than 10 µM. The AC50 in [7] and in test [8] was greater than 30 µM each time.
As to `Cc1ccccc1-n1c(CF)nc2ccc(N)cc2c1=O` [AFLOQUALONE], the AC50 in [1] is greater than 30 µM; in test [9] it was greater than 10 µM; in test [2] it was greater than 10 µM; in test [3], greater than 30 µM; in test [6], greater than 10 µM; in test [10] it was greater than 10 µM. The AC50 in test [7] and in test [8] was greater than 30 µM each time.
As to `CN(C)Cc1nnc2n1-c1ccc(Cl)cc1C(c1ccccc1)=NC2` [ADINAZOLAM], the AC50 in test [1] is greater than 10 µM; in test [9], greater than 10 µM; in test [2], greater than 10 µM; in test [3] it was greater than 10 µM; in test [6], 0.19 µM; in test [10], greater than 10 µM. The AC50 in [7] is greater than 30 µM; in test [8] it was greater than 10 µM.
